# Reference: patent publication US7091351B2, “Vanadium compounds for treating cancer” (Parker Hughes Institute, priority 1998, dated 2006)
# Key:
# Assay type in all cases: cell-based, human
# [1] = tested on: Ntera-2 testicular cancer cells; assay: Flow cytometric TUNEL apoptosis assay, NTERA-2 cells; details: 24 h, TUNEL-positive nuclei
# Protocol: (§1) A flow cytometric two-color terminal […] transferase (TdT)-mediated digoxigenin-uridine triphosphate (dUTP) nick-end labeling assay (TUNEL) was employed to detect apoptotic nuclei. Gavrieli, Y., Sherman, Y., Ben-Sasson, S. A. Identification of programmed cell death in situ via specific labeling of nuclear DNA fragmentation. J. Cell Biol., 119: 493–501, 1992. Exponentially growing cells (10^6/ml) were incubated in DMSO alone (0.1%) or treated with 100 μM each of the 16 vanadocenes (VDB, VDC, VMDC, VDI, VDA, VDCN, VDOCN, VDSCN, VDSeCN, VDT, VDCO, VDFe, VD(acac), VDH, VD(dpy), and VD(dtc) in 0.1% DMSO for 24 h. Cells were washed in PBS, fixed in 4% paraformaldehyde in PBS for 15 min on ice. Following two washings in PBS, they were permeabilized with 0.1% Triton X-100 in 0.1% sodium citrate for 2 min on ice, and washed twice in PBS. Labeling of exposed 3′-hydroxyl (3′-OH) ends of fragmented nuclear DNA was performed using TdT and fluorescein isothiocyanate (FITC)-conjugated dUTP according to the manufacturer's recommendations (Boehringer Mannheim, Indianapolis, Ind.). Cells were counterstained with 5 μg/ml PI. Control samples included: (i) untreated cells; (ii) cells incubated with the reaction mixture without the TdT enzyme. Cells were analyzed with a FACS Calibur flow cytometer (Becton Dickinson, Mountain View, Calif.). Relative DNA content (PI) was detected with band-pass filter 585/42, and dUTP incorporation (FITC) was detected with band-pass filter 530/30. Fluorescence was compensated for in the acquisition software using single-label control samples. Data were acquired in listmode, gated to 10,000 events per sample, and analyzed with the use of CELLQuest software program (Becton Dickinson). […] Vanadocene-induced apoptosis is shown by an increase in the number of cells staining with FITC-dUTP. The M1 and M2 gates were used to demarcate non-apoptotic and apoptotic PI-counterstained cell populations, respectively. TUNEL assays were performed using two testicular cell lines Tera-2 and Ntera-2 following exposure to each of the 16 vanadocenes. In other experiments, MC540 binding (as an early marker of apoptosis) and PI permeability (as a marker of advanced stage apoptosis) were simultaneously measured in human cancer cells 24 hours after exposure to vanadocenes, as previously described. Uckun, F. M., Narla, R. K., Jun, X., Zeren, T., Venkatachalam, T., Waddick, K. G., Rostostev, A., Myers, D. E. Cytotoxic activity of EGF-genstein against breast cancer cells. Clin. Cancer Res. 4:901–912, 1998. Vassilev, A., Ozer, Z., Navara, C., Mahajan, S., and Uckun, F. M. Bruton's tyrosine kinase as an inhibitor of the Fas/CD95 death-inducing signaling complex. J. Biol. Chem. 274:1646–56, 1999. Whole cells were analyzed using a FACStar Plus flow cytometer (Becton Dickinson, San Jose, Calif.). All analyses were done using 488 nm excitation from an argon laser. MC540 and PI emissions were split with a 600 nm short pass dichroic mirror and a 575 nm band pass filter was placed in front of one photomultiplier tube to measure MC540 emission and a 635 nm band pass filter was used for PI emission.
# [2] = tested on: Tera-2 testicular cancer cells; assay: MTT cytotoxicity assay of vanadocenes, TERA-2 cells; details: 24 h, 1.9-250 μM
# Protocol: (§2) Human testicular cancer cell lines, Tera-2 (embryonal carcinoma) and Ntera-2 (pluripotent embryonal carcinoma) were obtained from the American Type Culture Collection (ATCC) (Rockeville, Md.) and propagated in T-25, T-75, or T-150 cm^2 tissue culture flasks (Corning Corp., Corning, N.Y.) in McCoy's 5A medium and Dulbecco's modified Eagle's medium respectively. Both media were supplemented with 10% fetal calf serum (FCS), 4 mM glutamine, 100 U/ml penicillin G, and […] streptomycin sulfate. All tissue culture reagents were obtained from Life Technologies Inc. (GIBCO-BRL), Gaithersburg, Md. Cell lines were cultivated for a minimum of two passages after thawing prior to experimentation. Other cell lines that were used in this study were the human B-lineage acute lymphoblastic leukemia (ALL) cell line NALM-6. Uckun, F. M., Evans, W. E., Forsyth, C. J., Waddick, K. G., Tuel-Ahlgren, L., Chelstrom, L. M., Burkhardt, A., Bolen, J., Myers, D. E. Biotherapy of B-cell precursor leukemia by targeting genistein to CD19-associated tyrosine kinase. Science (Washington DC) 267:886–91, 1995; T-lineage ALL cell line MOLT-3, Waurzyniak, B., Shneider, E. A., Tumer, N., Yanishevski, Y., Gunther, R., Chelstrom, L., Wendorf, H., Myers, D. E., Irvin, J. D., Messinger, Y., Ek, O., Zeren, T., Chandan-Langlie, M., Evans, W. E., Uckun, F. M. In vivo toxicity, pharmacokinetics, and antileukemic activity of TXU (anti-CD7)-pokeweed antiviral protein immunotoxin. Clinical Cancer Research 3:881–890, 1997; AML cell line HL-60, Perentesis, J. P., Waddick, K. G., Bendel, A. E., Shao, Y., Warman, B. E., Chandan-Langlie, M., and Uckun, F. M. Induction of apoptosis in multi-drug resistant andradiation-resistant acute myeloid leukemia cells by a recombinant fusion toxin directed against the granulocyte macrophage colony stimulating factor receptor. Clin. Cancer Res. 3:347–355, 1997; breast cancer cell lines MDA-MB-231 and BT-20, Uckun, F. M., Narla, R. K., Jun, X., Zeren, T., Venkatachalam, T., Waddick, K. G., Rostostev, A., Myers, D. E. Cytotoxic activity of EGF-genstein against breast cancer cells. Clin. Cancer Res. 4:901–912, 1998; glioblastoma cell lines U87 and U373, Narla, R. K., Liu, X., Myers, D. E., and Uckun, F. M. 4-(3′-Bromo-4′hydroxylphenyl)-amino-6,7-dimethoxyquinazoline (WHI-P154): A novel quinazoline derivative with potent cytotoxic activity against human glioblastoma cells. Clin. Cancer Res. 4:1405–1414, 1998.
# (§3) MTT (3-[4,5-dimethyl thiazol-2-yl]-2,5-diphenyltetrazolium bromide)-based colorimetric assays were used for evaluation of the cytotoxicity of vanadocene compounds. Mosmann, T. Rapid colorimetric assay for cellular growth and survival: application to proliferation and cytotoxicity assays. J. Immunol. Methods, 65: 55–63, 1983. Briefly, cells were harvested with 0.125% (w/v) trypsin-0.02% EDTA (GIBCO-BRL) from exponential-phase maintenance cultures and centrifuged (300 g×5 min). After suspension and counting, cells were dispensed within triplicate 96-well tissue culture plates in 100 μl volumes. After 24 h incubation, the culture medium was discarded and replaced with 100 μl of fresh medium containing serial two-fold dilutions of drugs in medium to yield 1.9 μM to 250 μM. All compounds were reconstituted in DMSO to a concentration of 100 mM, and the stock solution was made fresh for each experiment. Control wells consisted of medium containing 0.25% of DMSO alone were used for solvent control. Culture plates were then incubated for 24 h before adding 10 μl of MTT solution (5 mg/ml in PBS) to each well. Wells containing only medium and MTT were used as controls for each plate. The tetrazolium/formazan reaction was allowed to proceed for 4 h at 37° C., and then 100 μl of the solubilization buffer (10% sodium dodecyl sulfate in 0.1% HCl) were added to all wells and mixed thoroughly to dissolve the dark blue formazan crystals. […]
# [3] = tested on: Tera-2 testicular cancer cells; assay: Flow cytometric TUNEL apoptosis assay, TERA-2 cells; details: 24 h, TUNEL-positive nuclei
# Protocol: as §1
# U373 glioblastoma cells [4] = assay: MTT cytotoxicity assay of vanadocenes, U373 cells; details: 24 h
# Protocol: as §2, §3
# [5] = tested on: NALM-6 B-lineage acute lymphoblastic leukemia cells; assay: MTT cytotoxicity assay of vanadocenes, NALM-6 cells; details: 24 h
# Protocol: as §2
# as §3, with “control.” for “control. Culture plates were then incubated for 24 h before adding 10 μl of MTT solution (5 mg/ml in PBS) to each well. Wells containing only medium and MTT were used as controls for each plate. The tetrazolium/formazan reaction was allowed to proceed for 4 h at 37° C., and then 100 μl of the solubilization buffer (10% sodium dodecyl sulfate in 0.1% HCl) were added to all wells and mixed thoroughly to dissolve the dark blue formazan crystals.”
# [6] = tested on: Ntera-2 testicular cancer cells; assay: MTT cytotoxicity assay of vanadocenes, NTERA-2 cells; details: 24 h, 1.9-250 μM
# Protocol: as §2, §3
# [7] = tested on: PC3 prostate cancer cells; assay: Cytotoxic activity of oxovanadium(IV) compounds, PC3; details: read-out: Cytotoxic Activity PC3
# Protocol: (§4) The cytotoxicity of oxovanadium (W) complexes listed in Table 6 were tested against 9 different human cancer cell lines was performed using the MTT (3-[4,5-dimethylthiazol-2-yl]-2,5-diphenyl tetrazolium bromide) assay (Boehringer Mannheim Corp., Indianapolis, Ind.) as described previously (20). Briefly, exponentially growing tumor cells were seeded into a 96-well plate at a density of 4×10^4cells/well and incubated with medium containing the oxovanadium(IV) compounds concentrations ranging from 0.1 to 250 μM for 48 hours at 37° C. in a humidified 5% CO2 atmosphere. Triplicate wells were used for each treatment. To each well, 10 μl of MTT (0.5 mg/ml final concentration) was added and the plates were incubated at 37° C. for 4 hours to allow MTT to form formazan crystals by reacting with metabolically active cells . The formazan crystals were solubilized overnight at 37° C. in a solution containing 10% SDS in 0.01 M HCl. The absorbence of each well was measured in a microplate reader (Labsystems) at 540 nm and a reference wavelength of 690 nm. To translate the OD540 values into the number of live cells in each well, the OD540 values were compared to those on standard OD540—versus—cell number curves generated for each cell line. The percent survival was calculated using the formula: % survival=Live cell number[test]/Live cell number [control]×100. The IC50 values were calculated by non-linear regression analysis using an Graphpad Prism software version 2.0 (Graphpad Software, Inc., San Diego, Calif.).
# [8] = tested on: NTD1 testicular cancer cells; assay: Cytotoxic activity of oxovanadium(IV) compounds, NTD1; details: read-out: Cytotoxic Activity NTD1
# Protocol: as §4
# [9] = tested on: ARH77 multiple myeloma cells; assay: MTT cytotoxicity assay of oxovanadium(IV) compounds, ARH77; details: 48 hr
# Protocol: as §4, with “Briefly, exponentially growing tumor cells were seeded into a 96-well plate at a density of 4×10^4cells/well and incubated with medium containing the oxovanadium(IV) compounds concentrations ranging from 0.1 to 250 μM for 48 hours at 37° C. in a humidified 5% CO2 atmosphere.” left out
# [10] = tested on: U266BL multiple myeloma cells; assay: MTT cytotoxicity assay of oxovanadium(IV) compounds, U266BL; details: 48 hr
# Protocol: as §4
# [11] = tested on: Tera-2 testicular cancer cells; assay: Cytotoxic activity of oxovanadium(IV) compounds, TERA-2; details: read-out: Cytotoxic Activity TERA-2
# Protocol: as §4
# [12] = tested on: 64cp5 testicular cancer cells; assay: Cytotoxic activity of oxovanadium(IV) compounds, 64cp5; details: read-out: Cytotoxic Activity 64cp5
# Protocol: as §4
# BT20 breast cancer cells = assay: Cytotoxic activity of oxovanadium(IV) compounds, BT20; details: read-out: Cytotoxic Activity BT20
# Protocol: as §4
# U373 glioblastoma cells [13] = assay: Cytotoxic activity of oxovanadium(IV) compounds, U373; details: read-out: Cytotoxic Activity U373
# Protocol: as §4
# [14] = tested on: 833-K testicular cancer cells; assay: Cytotoxic activity of oxovanadium(IV) compounds, 833-K; details: read-out: Cytotoxic Activity 833-K
# Protocol: as §4
# MOLT-3 cells = assay: MTT cytotoxicity assay of oxovanadium(IV) compounds, MOLT-3; details: 48 hr
# Protocol: as §4
# NALM-6 cells = assay: MTT cytotoxicity assay of oxovanadium(IV) compounds, NALM-6; details: 48 hr
# Protocol: as §4
# [15] = tested on: HS-SULTAN multiple myeloma cells; assay: MTT cytotoxicity assay of oxovanadium(IV) compounds, HS-SULTAN; details: 48 hr
# Protocol: as §4
# HL-60 cells = assay: MTT cytotoxicity assay of oxovanadium(IV) compounds, HL-60; details: 48 hr
# Protocol: as §4
# [16] = tested on: HS445 Hodgkin's lymphoma cells; assay: MTT cytotoxicity assay of oxovanadium(IV) compounds, HS445; details: 48 hr
# Protocol: as §4
compound,measurement,setting,value
"[I-].[I-].[V+2].c1cc[cH-]c1.c1cc[cH-]c1 [VDI, VCp2I2]",% Apoptosis at 100 μM NTERA-2,[1],"57 (46, 69) %"
same,IC50,[2],221 µM
same,% Apoptosis at 100 μM TERA-2,[3],"72 (71, 73) %"
same,IC50,U373 glioblastoma cells [4],5 µM
same,IC50,[5],18 µM
same,IC50,[6],204 µM
"[N-]=[N+]=[N-].[N-]=[N+]=[N-].[V+2].c1cc[cH-]c1.c1cc[cH-]c1 [VDA, VCp2(N3)2]",% Apoptosis at 100 μM NTERA-2,[1],"85 (78, 93) %"
same,IC50,[2],70 µM
same,% Apoptosis at 100 μM TERA-2,[3],"85 (78, 92) %"
same,IC50,U373 glioblastoma cells [4],51 µM
same,IC50,[5],16 µM
same,IC50,[6],68 µM
"(diaqua) (1,10-phenanthroline)oxovanadium(IV) sulfate [Compound 26]",IC50,[7],11.2 µM
same,IC50,[8],> 100 µM
same,IC50,[9],15.6 ± 3.2 µM
same,IC50,[10],3.5 ± 0.5 µM
same,IC50,[11],> 100 µM
same,IC50,[12],8.5 µM
same,IC50,BT20 breast cancer cells,6.6 µM
same,IC50,U373 glioblastoma cells [13],7.7 µM
same,IC50,[14],12.8 µM
same,IC50,MOLT-3 cells,2.7 ± 0.2 µM
same,IC50,NALM-6 cells,3.4 ± 0.2 µM
same,IC50,[15],11.2 ± 2.2 µM
same,IC50,HL-60 cells,3.2 ± 1.1 µM
same,IC50,[16],6.3 ± 1.8 µM
"[Br-].[Br-].[V+2].c1cc[cH-]c1.c1cc[cH-]c1 [VDB, VCp2Br2]",% Apoptosis at 100 μM NTERA-2,[1],"93 (93, 94) %"
same,IC50,[2],154 µM
same,% Apoptosis at 100 μM TERA-2,[3],"84 (83, 86) %"
same,IC50,U373 glioblastoma cells [4],62 µM
same,IC50,[5],17 µM
same,IC50,[6],70 µM
